Results as given in US20050282755A1, “Compositions having antimicrobial activity and uses thereof” (priority 2004, published 2005).
Converted amounts (≈) assume the structure as drawn. Where two headings read alike, the source gives them in different places. Non-standard residues stand in square brackets, D forms with d. Residues, ends and D or L forms follow the SMILES beside them. *: point of attachment. Lauroyl = CCCCCCCCCCCC(=O)*; Decanoyl = CCCCCCCCCC(=O)*; Octanoyl = CCCCCCCC(=O)*

Experiments:
Assay type in all cases: cell-based
[1] = test system: Propionibacterium acnes ATCC 6919
Description: A second method that was used to determine the MIC in P. acnes for selected antimicrobial agents was a non-standard broth microdilution method that used an assay buffer composed of reinforced Clostridial broth. Briefly, a log-phase bacterial culture of P. acnes was used to inoculate wells of a 96-well plate so that the final inoculum for each well contained 5×10^5 to 1×10^6 CFU/milliliter. […] Plates were incubated for 48-72 hours at 37° C. in a GasPak anaerobic chamber. The lowest concentration of peptide that contained no visible growth as evidenced by a lack of turbidity when compared to the control (no peptide) was determined as the MIC. MIC values that utilized this method of MIC determination are indicated in Table 9 with a subscript letter “d.”

[2] = test system: Salmonella dublin (Lane); test: MIC, NCCLS M7-A6 broth microdilution (Table 9, no superscript)
Procedure, shortened: (§1)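 Broth microdilution in cation-adjusted Mueller Hinton broth, log-phase inoculum giving 5×10^5 to 1×10^6 CFU/milliliter per well. Overnight incubation at 37° C. MIC taken as lowest peptide concentration with no visible turbidity versus a no-peptide control.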

[3] = test system: Staphylococcus aureus ATCC 29213; test: MIC, NCCLS M7-A6 broth microdilution, cation-adjusted Mueller Hinton broth (Table 9, no superscript); conditions: ATCC 29213
Procedure, shortened: as §1

[4] = test system: Candida albicans ATCC 18804; test: MIC in yeasts, NCCLS M27-A2 broth microdilution, RPMI 1640 (Table 9, letter e); conditions: ATCC 18804
Procedure, shortened: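 Plates incubated 24 to 48 hours at 37° C, with yeast seeded at 0.5×10^3–2.5×10^3 CFU/milliliter final in RPMI 1640 (glutamine, phenol red indicator). MIC was read as the lowest peptide concentration showing no visible growth.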

[5] = test system: Propionibacterium acnes ATCC 6919; test: MIC, agar dilution method NCCLS M11-A6, Brucella agar, anaerobic (Table 9, superscript c); conditions: ATCC 6919
Procedure, shortened: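 MIC taken as the lowest peptide level giving no colonies on the plate. Plates were inoculated to 1.5×10^8 CFU/milliliter, then kept anaerobically at 37° C. for 48-96 hours; method follows NCCLS M11-A6.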

[6] = test system: Pseudomonas aeruginosa ATCC 27853; test: MIC, NCCLS M7-A6 broth microdilution (Table 9, no superscript); conditions: ATCC 27853
Procedure, shortened: as §1

[7] = test system: Escherichia coli ATCC 25922; test: as above; conditions: ATCC 25922
Procedure, shortened: as §1

[8] = test system: Staphylococcus epidermidis ATCC 12228; test: as above; conditions: ATCC 12228
Procedure, shortened: as §1

| Structure (SMILES) | MIC P. acnes [1] [µg·days/mL] | MIC S. dublin [2] [µg/mL] | MIC S. aureus [3] [µg/mL] | MIC C. albicans [4] [e ug/mL] | MIC P. acnes [5] [c ug/mL] | MIC P. aeruginosa [6] [µg/mL] | MIC E. coli [7] [µg/mL] | MIC S. epidermidis [8] [µg/mL] |
| --- | --- | --- | --- | --- | --- | --- | --- | --- |
| CSCC[C@@H](NC(=O)[C@@H](Cc1ccccc1)NC(=O)[C@@H](CC(N)=O)NC(=O)[C@@H](CCCNC(=N)N)NC(=O)[C@@H](CO)NC(=O)[C@@H](Cc1c[nH]c2ccccc12)NC(=O)[C@@H](CC(=O)O)NC(=O)[C@@H](CCCNC(=N)N)NC(=O)[C@@H](Cc1c[nH]c2ccccc12)NC(=O)[C@@H](CCCNC(=N)N)NC(=O)[C@@H](CO)NC(=O)[C@@H](CCCNC(=N)N)NC(=O)CNC(=O)[C@H](NC(=O)[C@@H](CCCNC(=N)N)NC(=O)[C@@H](CO)NC(=O)[C@H](NC(=O)[C@@H](CCCNC(=N)N)NC(=O)[C@H](NC(C)=O)[C@H](C)O)C(C)C)[C@H](C)O)C(=O)N[C@H](CCCNC(=N)N)C(=O)N[C@H](CCCCN)C(=O)N[C@H](CCCCN)C(=O)N[C@H](CCCCN)C(=O)N[C@H](CCCCN)C(=O)N[C@H](CCCCN)C(=O)N[C@H](CCCCN)C(=O)N[C@H](CCCCN)C(=O)N[C@H](CCCCN)C(N)=O [Peptide 34, Ac-trvsrtgrsrwrdwsrnfmrkkkkkkkk-NH2] (Ac-[dT][dR][dV][dS][dR][dT]G[dR][dS][dR][dW][dR][dD][dW][dS][dR][dN][dF][dM][dR][dK][dK][dK][dK][dK][dK][dK][dK]-NH2) | 6 | >64 | >64 |  |  |  |  |  |
| CSCC[C@H](NC(=O)[C@H](Cc1ccccc1)NC(=O)[C@H](CC(N)=O)NC(=O)[C@H](CCCNC(=N)N)NC(=O)[C@H](C)NC(=O)[C@@H](NC(=O)[C@H](CC(=O)O)NC(=O)[C@H](CCCNC(=N)N)NC(=O)[C@H](Cc1c[nH]c2ccccc12)NC(=O)[C@H](CCCNC(=N)N)NC(=O)[C@H](CO)NC(=O)[C@H](CCCNC(=N)N)NC(=O)CNC(=O)[C@@H](NC(=O)[C@H](CCCNC(=N)N)NC(=O)[C@H](C)NC(=O)[C@@H](NC(=O)[C@H](CCCNC(=N)N)NC(=O)[C@@H](NC(C)=O)[C@@H](C)O)C(C)C)[C@@H](C)O)C(C)C)C(=O)N[C@@H](CCCNC(=N)N)C(N)=O [Peptide 38] (Ac-TRVARTGRSRWRDVARNFMR-NH2) | 25 | >64 | >64 | 16 |  |  |  |  |
| CC(=O)N[C@@H](C(=O)N[C@H](CCCNC(=N)N)C(=O)N[C@@H](C(=O)N[C@H](CO)C(=O)N[C@H](CCCNC(=N)N)C(=O)N[C@@H](C(=O)NCC(=O)N[C@H](CCCNC(=N)N)C(=O)N[C@H](CO)C(=O)N[C@H](CCCNC(=N)N)C(=O)N[C@H](Cc1c[nH]c2ccccc12)C(=O)N[C@H](CCCNC(=N)N)C(=O)N[C@H](CC(=O)O)C(=O)N[C@H](Cc1c[nH]c2ccccc12)C(=O)N[C@H](CO)C(=O)N[C@H](CCCNC(=N)N)C(=O)N[C@H](CC(N)=O)C(=O)N[C@H](Cc1ccccc1)C(=O)N[C@H](C)C(=O)N[C@H](CCCNC(=N)N)C(N)=O)[C@H](C)O)C(C)C)[C@H](C)O [Peptide 61, Ac-trvsrtgrsrwrdwsrnfar-NH2] (Ac-[dT][dR][dV][dS][dR][dT]G[dR][dS][dR][dW][dR][dD][dW][dS][dR][dN][dF][dA][dR]-NH2) | 12.5 | >64 | >64 |  |  |  |  |  |
| CCCCCCCCCCCC(=O)N[C@H](C(=O)N[C@@H](CCCNC(=N)N)C(=O)N[C@H](C(=O)N[C@@H](C)C(=O)N[C@@H](CCCNC(=N)N)C(=O)N[C@H](C(=O)NCC(=O)N[C@@H](CCCNC(=N)N)C(=O)N[C@@H](CO)C(=O)N[C@@H](CCCNC(=N)N)C(=O)N[C@@H](Cc1c[nH]c2ccccc12)C(=O)N[C@@H](CCCNC(=N)N)C(=O)N[C@@H](CC(=O)O)C(=O)N[C@H](C(=O)N[C@@H](C)C(=O)N[C@@H](CCCNC(=N)N)C(=O)N[C@@H](CC(N)=O)C(=O)N[C@@H](Cc1ccccc1)C(=O)N[C@@H](CCSC)C(=O)N[C@@H](CCCNC(=N)N)C(N)=O)C(C)C)[C@@H](C)O)C(C)C)[C@@H](C)O [Peptide 69] (Lauroyl-TRVARTGRSRWRDVARNFMR-NH2) | 12.5 | 16 (≈ 5.99 µM) | 4 (≈ 1.5 µM) | 16 |  |  |  |  |
| CCCCCCCCCCCC(=O)N[C@H](CCCNC(=N)N)C(=O)N[C@H](CO)C(=O)N[C@H](CCCNC(=N)N)C(=O)N[C@H](Cc1c[nH]c2ccccc12)C(=O)N[C@H](CCCNC(=N)N)C(=O)N[C@H](CC(=O)O)C(=O)N[C@@H](C(=O)N[C@H](C)C(=O)N[C@H](CCCNC(=N)N)C(=O)N[C@H](CC(N)=O)C(=O)N[C@H](Cc1ccccc1)C(=O)N[C@H](CCSC)C(=O)N[C@H](CCCNC(=N)N)C(=O)N[C@H](CS)C(N)=O)C(C)C [Peptide 247, Lauryl-rsrwrdvarnfmrc-NH2] (Lauroyl-[dR][dS][dR][dW][dR][dD][dV][dA][dR][dN][dF][dM][dR][dC]-NH2) |  | 64 (≈ 31.5 µM) | 16 (≈ 7.86 µM) | 64 | >64 | >64 | 64 (≈ 31.5 µM) | 32 (≈ 15.7 µM) |
| CCCCCCCCCCCC(=O)N[C@H](CCCNC(=N)N)C(=O)N[C@H](CO)C(=O)N[C@H](CCCNC(=N)N)C(=O)N[C@H](Cc1c[nH]c2ccccc12)C(=O)N[C@H](CCCNC(=N)N)C(=O)N[C@H](CC(=O)O)C(=O)N[C@@H](C(=O)N[C@H](C)C(=O)N[C@H](CCCNC(=N)N)C(=O)N[C@H](CC(=O)O)C(=O)N[C@H](Cc1ccccc1)C(=O)N[C@H](CCSC)C(=O)N[C@H](CCCNC(=N)N)C(N)=O)C(C)C [Peptide 249, Lauryl-rsrwrdvardfmr-NH2] (Lauroyl-[dR][dS][dR][dW][dR][dD][dV][dA][dR][dD][dF][dM][dR]-NH2) |  | 4 (≈ 2.07 µM) | 2 (≈ 1.04 µM) | 8 | 8 | 8 (≈ 4.14 µM) | 4 (≈ 2.07 µM) | 2 (≈ 1.04 µM) |
| CCCCCCCC(=O)N[C@H](CCCNC(=N)N)C(=O)N[C@H](CO)C(=O)N[C@H](CCCNC(=N)N)C(=O)N[C@H](Cc1c[nH]c2ccccc12)C(=O)N[C@H](CCCNC(=N)N)C(=O)N[C@H](CC(=O)O)C(=O)N[C@@H](C(=O)N[C@H](C)C(=O)N[C@H](CCCNC(=N)N)C(=O)N[C@H](CC(N)=O)C(=O)N[C@H](Cc1ccccc1)C(=O)N[C@H](CC(C)C)C(=O)N[C@H](CCCNC(=N)N)C(N)=O)C(C)C [Peptide 252, Octyl-rsrwrdvarnflr-NH2] (Octanoyl-[dR][dS][dR][dW][dR][dD][dV][dA][dR][dN][dF][dL][dR]-NH2) |  | 64 (≈ 34.5 µM) | 16 (≈ 8.62 µM) | 64 | 16 | 16 (≈ 8.62 µM) | 16 (≈ 8.62 µM) | 2 (≈ 1.08 µM) |
| CCCCCCCCCC(=O)N[C@H](CCCNC(=N)N)C(=O)N[C@H](CO)C(=O)N[C@H](CCCNC(=N)N)C(=O)N[C@H](Cc1c[nH]c2ccccc12)C(=O)N[C@H](CCCNC(=N)N)C(=O)N[C@H](CC(=O)O)C(=O)N[C@@H](C(=O)N[C@H](C)C(=O)N[C@H](CCCNC(=N)N)C(=O)N[C@H](CC(N)=O)C(=O)N[C@H](Cc1ccccc1)C(=O)N[C@H](CC(C)C)C(=O)N[C@H](CCCNC(=N)N)C(N)=O)C(C)C [Peptide 253, Decanyl-rsrwrdvarnflr-NH2] (Decanoyl-[dR][dS][dR][dW][dR][dD][dV][dA][dR][dN][dF][dL][dR]-NH2) |  | 8 (≈ 4.24 µM) | 2 (≈ 1.06 µM) | 16 | 2 | 4 (≈ 2.12 µM) | 2 (≈ 1.06 µM) | 1 (≈ 0.53 µM) |
